From US20070037840A1, “Tricyclic benzimidazoles” (Altana Pharma AG, priority 2003, published 2007)

What was measured:
[1] = test system: pentagastrin-stimulated acid secretion of the perfused rat stomach; experiment: Secretion-inhibiting action on the perfused rat stomach (pentagastrin-stimulated acid secretion); assay type: in vivo; conditions: anesthetized CD rat, dose 2.0 μmol/kg i.d.
From the text: Testing of the Secretion-Inhibiting Action on the Perfused Rat Stomach
In Table A which follows, the influence of the compounds of the formula 1 according to the invention on the pentagastrin-stimulated acid secretion of the perfused rat stomach after intraduodenal administration in vivo is shown.
The abdomen of anesthetized rats (CD rat, female, 200-250 g; 1.5 g/kg i.m. urethane) was opened after tracheotomy by a median upper abdominal incision and a PVC catheter was fixed transorally in the esophagus and another via the pylorus such that the ends of the tubes just projected into the gastric lumen. The catheter leading from the pylorus led outward into the right abdominal wall through a side opening.
After thorough rinsing (about 50-100 ml), warm (37° C.) physiological NaCl solution was continuously passed through the stomach (0.5 ml/min, pH 6.8-6.9; Braun-Unita I). The pH (pH meter 632, glass electrode EA 147; φ=5 mm, Metrohm) and, by titration with a freshly prepared 0.01N NaOH solution to pH 7 (Dosimat 665 Metrohm), the secreted HCl were determined in the effluent in each case collected at an interval of 15 minutes.
The gastric secretion was stimulated by continuous infusion of […] (=1.65 ml/h) of i.v. pentagastrin (left femoral vein) about 30 min after the end of the operation (i.e. after determination of 2 preliminary fractions). The substances to be tested were administered intraduodenally in a 2.5 ml/kg liquid volume 60 min after the start of the continuous pentagastrin infusion. The body temperature of the animals was kept at a constant 37.8-38° C. by infrared irradiation and heat pads (automatic, stepless control by means of a rectal temperature sensor).

melting point [°C] | Structure (SMILES) | Inhibition of acid secretion [1] [%]
 | CCO[C@@H]1c2ccc3c(nc(C)n3C)c2N[C@H](c2ccccc2)[C@H]1O [Example 3, (6R,7R,8R)-2,3-Dimethyl-6-ethoxy-7-hydroxy-8-phenyl-6,7,8,9-tetrehydro-3H-imidazo[4,5h]-quinoline] | >50
235.4 | Cc1nc2c3c(ccc2n1C)[C@H](O)[C@H](O)[C@@H](c1ccccc1)N3 [Example 6, (6S,7R,8R)-2,3-Dimethyl-6,7-dihydroxy-8-phenyl-6,7,8,9tetrahydro-3H-imidazo[4,5-h]quinoline] | <50
 | Cc1nc2c3c(ccc2n1C)[C@@H](OCC(F)F)[C@H](O)[C@@H](c1ccccc1)N3 [Example 7, (6R,7R,8R)-2,3-Dimethyl-7-hydroxy-6-(2,2-difluoroethoxy)-8-phenyl-6,7,8,9-tetrahydro-3H-imidazo[4,5-h]quinoline] | >50
 | COCCO[C@@H]1c2ccc3c(nc(C)n3C)c2N[C@H](c2ccccc2)[C@H]1O [Example 1, (6R,7R,8R)-2,3-Dimethyl-7-hydroxy-6-(2-methoxyethoxy)-8-phenyl-6,7,8,9-tetrahydro-3H-imidazo[4,5h]quinoline] | >50
224.7 | Cc1nc2c3c(ccc2n1C)[C@@H](O)[C@H](O)[C@@H](c1ccccc1)N3 [Example 5, (6R,7R,8R)-2,3-Dimethyl-6,7-dihydroxyl-8-phenyl-6,7,8,9-tetrahydro-3H-imidazo[4,5-h]quinoline] | >50
169.9 | CCO[C@H]1c2ccc3c(nc(C)n3C)c2N[C@H](c2ccccc2)[C@H]1O [Example 4, (6S,7R,8R)-2,3-Dimethyl-6-ethoxy-7-hydroxy-8-phenyl-6,7,8,9-tetrahydro-3H-imidazo[4,5-h]-quinoline] | <50
 | COCCO[C@H]1c2ccc3c(nc(C)n3C)c2N[C@H](c2ccccc2)[C@H]1O [Example 2, (6S,7R,8R)-2,3-Dimethyl-7-hydroxy-6-(2-methoxyethoxy)-8-phenyl-6,7,8,9-tetrahydro-3H-imidazo[4,5-]quinoline] | <50
